Test results from patent US9145372B2, “Pyridazine derivatives, compositions and methods for treating cognitive impairment” (AGENEBIO, INC., priority 2010, dated 2015).
“Also recorded” adds a separate entry of the source.

Legend:
aged-impaired (AI) rats [1] = experiment: Morris water maze behavioral task after ICV infusion; format: in vivo, rat; conditions: 100 μg ICV
Description: The effects of 6,6 dimethyl-3-(3-hydroxypropyl)thio-1-(thiazol-2-yl)-6,7-dihydro-2-benzothiophen-4(5H)-one on the in vivo spatial memory retention of aged-impaired (AI) rats were assessed in a Morris water maze behavioral task. A water maze is a pool surrounded with a novel set of patterns relative to the maze.
Cognitively impaired aged rats were implanted unilaterally with a cannula into the lateral ventricle. Stereotaxic coordinates were 1.0 mm posterior to bregma, 1.5 mm lateral to midline, and 3.5 mm ventral to the skull surface. After about a week of recovery, the rats were pre-trained in a water maze for 2 days (6 trials per day) to locate a submerged escape platform hidden underneath the surface of the pool, in which the escape platform location varied from day to day. No intracerebroventricular (ICV) infusion was given during pre-training
After pre-training, rats received ICV infusion of either 100 μg 6,6 dimethyl-3-(3-hydroxypropyl)thio-1-(thiazol-2-yl)-6,7-dihydro-2-benzothiophen-4(5H)-one (n=6) in 5 μl DMSO or vehicle DMSO (n=5) 40 min prior to water maze training and testing. Training consisted of 8 trials per day for 2 days where the hidden escape platform remained in the same location. Rats were given 60 seconds to locate the platform with a 60 seconds inter-trial interval. The rats were given a probe test (120 seconds) 24 hr after the end of training where the escape platform was removed. During the training, there were 4 blocks, where each block had 4 training trials.
Rats treated with vehicle and 6,6 dimethyl-3-(3-hydroxypropyl)thio-1-(thiazol-2-yl)-6,7-dihydro-2-benzothiophen-4(5H)-one found the escape platform about the same time at the beginning of training (block 1). In this block of training, rats treated with vehicle and 6,6 dimethyl-3-(3-hydroxypropyl)thio-1-(thiazol-2-yl)-6,7-dihydro-2-benzothiophen-4(5H)-one both spent about 24 seconds to find the escape platform. However, rats treated with 6,6 dimethyl-3-(3-hydroxypropyl)thio-1-(thiazol-2-yl)-6,7-dihydro-2-benzothiophen-4(5H)-one were able to find the platform more proficiently (i.e., quicker) at the end of training (block 4) than those treated with vehicle alone. In block 4, rats treated with 6,6 dimethyl-3-(3-hydroxypropyl)thio-1-(thiazol-2-yl)-6,7-dihydro-2-benzothiophen-4(5H)-one spent about 9.6 seconds to find the escape platform, while rats treated with vehicle spent about 19.69 seconds.
During a test trial 24 hr after training, the escape platform was removed. The search/swim pattern of the rats was used to measure whether the rats remember where the escape platform was located during pre-trial training in order to test for the long-term memory of the rats. […]

aged-impaired (AI) rats [2] = experiment: Radial Arm Maze (RAM) behavioral task, spatial memory retention; format: in vivo, rat; conditions: four-hour delay RAM
Description: The effects of methyl 3,5-diphenylpyridazine-4-carboxylate on the in vivo spatial memory retention of aged-impaired (AI) rats were assessed in a Radial Arm Maze (RAM) behavioral task using vehicle control and four different dosage levels of methyl 3,5-diphenylpyridazine-4-carboxylate (0.1 mg/kg, 0.3 mg/kg, 1 mg/kg and 3 mg/kg, ip). RAM behavioral tasks were performed on eight AI rats. All five treatment conditions (vehicle and four dosage levels) were tested on all eight rats.
The RAM apparatus used consisted of eight equidistantly-spaced arms. An elevated maze arm (7 cm width×75 cm length) projected from each facet of an octagonal center platform (30 cm diameter, 51.5 cm height). Clear side walls on the arms were 10 cm high and were angled at 65° to form a trough. A food well (4 cm diameter, 2 cm deep) was located at the distal end of each arm. Froot Loops™ (Kellogg Company) were used as rewards. Blocks constructed of Plexiglas™ (30 cm height×12 cm width) could be positioned to prevent entry to any arm. Numerous extra maze cues surrounding the apparatus were also provided.
The AI rats were initially subjected to a pre-training test (Chappell et al. Neuropharmacology 37: 481-487, 1998). The pre-training test consisted of a habituation phase (4 days), a training phase on the standard win-shift task (18 days) and another training phase (14 days) in which a brief delay was imposed between presentation of a subset of arms designated by the experimenter (e.g., 5 arms available and 3 arms blocked) and completion of the eight-arm win-shift task (i.e., with all eight arms available).
In the habituation phase, rats were familiarized to the maze for an 8-minute session on four consecutive days. In each of these sessions, food rewards were scattered on the RAM, initially on the center platform and arms and then progressively confined to the arms. After this habituation phase, a standard training protocol was used, in which a food pellet was located at the end of each arm. Rats received one trial each day for 18 days. Each daily trial terminated when all eight food pellets had been obtained or when either 16 choices were made or 15 minutes had elapsed. After completion of this training phase, a second training phase was carried out in which the memory demand was increased by imposing a brief delay during the trial. At the beginning of each trial, three arms of the eight-arm maze were blocked. Rats were allowed to obtain food on the five arms to which access was permitted during this initial “information phase” of the trial. Rats were then removed from the maze for 60 seconds, during which time the barriers on the maze were removed, thus allowing access to all eight arms. […]

GABAA α5 receptor = GABAA α5 receptor (Rattus norvegicus, UniProt P18508+P19969); experiment: GABAA α5 receptor occupancy in vivo with Ro 15-4513 tracer (hippocampus vs cerebellum); conditions: i.v.
GABAA α5 receptor, sequence (P19969 32-464 limits assumed): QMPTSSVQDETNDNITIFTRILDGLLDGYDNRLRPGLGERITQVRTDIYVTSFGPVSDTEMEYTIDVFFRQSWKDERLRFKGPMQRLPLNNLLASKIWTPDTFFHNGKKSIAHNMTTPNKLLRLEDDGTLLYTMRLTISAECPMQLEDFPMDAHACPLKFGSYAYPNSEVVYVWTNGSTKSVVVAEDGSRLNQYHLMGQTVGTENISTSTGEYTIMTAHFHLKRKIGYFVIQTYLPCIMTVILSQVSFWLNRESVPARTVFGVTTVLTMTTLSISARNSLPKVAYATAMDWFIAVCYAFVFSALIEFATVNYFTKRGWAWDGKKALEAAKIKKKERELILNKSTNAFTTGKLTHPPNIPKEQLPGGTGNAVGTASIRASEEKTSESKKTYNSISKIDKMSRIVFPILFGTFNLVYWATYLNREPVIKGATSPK
GABAA α5 receptor, sequence (P18508 39-466): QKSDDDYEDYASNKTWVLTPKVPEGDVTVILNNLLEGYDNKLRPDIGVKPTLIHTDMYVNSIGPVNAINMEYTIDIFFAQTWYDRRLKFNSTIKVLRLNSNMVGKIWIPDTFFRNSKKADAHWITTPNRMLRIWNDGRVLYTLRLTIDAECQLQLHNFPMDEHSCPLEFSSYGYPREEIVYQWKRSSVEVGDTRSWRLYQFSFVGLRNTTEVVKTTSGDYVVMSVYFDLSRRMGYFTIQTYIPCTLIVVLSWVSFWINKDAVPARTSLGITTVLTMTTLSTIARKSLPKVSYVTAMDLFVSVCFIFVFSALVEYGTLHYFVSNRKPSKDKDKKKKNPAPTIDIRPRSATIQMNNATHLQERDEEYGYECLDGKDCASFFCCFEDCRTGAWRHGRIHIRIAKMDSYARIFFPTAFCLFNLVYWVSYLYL
GABAA α5 receptor, sequence (P63079 26-473 partner): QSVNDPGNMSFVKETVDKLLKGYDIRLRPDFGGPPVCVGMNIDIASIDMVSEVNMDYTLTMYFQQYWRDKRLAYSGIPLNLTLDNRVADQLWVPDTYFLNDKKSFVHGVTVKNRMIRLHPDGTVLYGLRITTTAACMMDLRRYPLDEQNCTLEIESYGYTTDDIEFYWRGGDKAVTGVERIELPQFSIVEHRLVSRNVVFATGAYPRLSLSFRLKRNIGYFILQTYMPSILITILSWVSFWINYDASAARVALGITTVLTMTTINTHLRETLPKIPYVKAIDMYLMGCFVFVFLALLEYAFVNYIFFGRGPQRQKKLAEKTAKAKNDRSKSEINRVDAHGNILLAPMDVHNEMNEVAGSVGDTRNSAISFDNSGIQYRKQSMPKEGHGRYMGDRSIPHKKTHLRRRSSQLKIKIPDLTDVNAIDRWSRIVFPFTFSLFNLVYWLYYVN
Text: Adult male Long Evans rats (265-295 g, Charles River, Portage, Mich., n=4/group) were used for GABAA α5 receptor occupancy studies. Rats were individually housed in ventilated stainless-steel racks on a 12:12 light/dark cycle. Food and water were available ad libitum.
Ro 15-4513 was used as a receptor occupancy (RO) tracer for GABAA α5 receptor sites in the hippocampus and cerebellum. Ro 15-4513 was chosen as the tracer based on its selectivity for GABAA α5 receptors relative to other alpha subunit containing GABAA receptors and because it has been successfully used for GABAA α5 RO studies in animals and humans (see, e.g., Lingford-Hughes et al., J. Cereb. Blood Flow Metab. 22:878-89 (2002); Pym et al, Br. J. Pharmacol. 146: 817-825 (2005); and Maeda et al., Synapse 47: 200-208 (2003)). Ro 15-4513 (1 μg/kg), was dissolved in 25% hydroxyl-propyl beta-cyclodextrin and administered i.v. 20′ prior to the RO evaluations. Methyl 3,5-diphenylpyridazine-4-carboxylate (0.1-10 mg/kg) was synthesized by Nox Pharmaceuticals (India) and was dissolved in 25% hydroxyl-propyl beta-cyclodextrin and administered i.v. 15′ prior to tracer injection.
The rats were sacrificed by cervical dislocation 20′ post tracer injection. The whole brain was rapidly removed, and lightly rinsed with sterile water. Trunk blood was collected in EDTA coated eppendorf tubes and stored on wet ice until study completion. Hippocampus and cerebellum were dissected and stored in 1.5 ml eppendorf tubes, and placed on wet ice until tissue extraction. In a drug naïve rat, six cortical brain tissues samples were collected for use in generating blank and standard curve samples.
Acetonitrile containing 0.1% formic acid was added to each sample at a volume of four times the weight of the tissue sample. For the standard curve (0.1-30 ng/g) samples, a calculated volume of standard reduced the volume of acetonitrile. The sample was homogenized (FastPrep-24, Lysing Matrix D; 5.5 m/s, for 60 seconds or 7-8 watts power using sonic probe dismembrator; Fisher Scientific) and centrifuged for 16-minutes at 14,000 rpm. The (100 μl) supernatant solution was diluted by 300 μl of sterile water (pH 6.5). This solution was then mixed thoroughly and analyzed via LC/MS/MS for […] (tracer) and methyl 3,5-diphenylpyridazine-4-carboxylate.
Receptor occupancy was determined by the ratio method which compared occupancy in the hippocampus (a region of high GABAA α5 receptor density) with occupancy in the cerebellum (a region with low GABAA α5 receptor density) and additionally by a high dose of the GABAA α5 negative allosteric modulator L-655,708 (10 mg/kg, i.v.) to define full occupancy.

[3] = probe test 24 hr after training

CC1(C)CC(=O)c2c(SCCCO)sc(-c3nccs3)c2C1 [6,6 dimethyl-3-(3-hydroxypropyl)thio-1-(thiazol-2-yl)-6,7-dihydro-2-benzothiophen-4(5H)-one]
time to find the escape platform (escape latency), block 1 (aged-impaired (AI) rats [1]; beginning of training): about 24 seconds
time to find the escape platform (escape latency), block 4 (aged-impaired (AI) rats [1]; end of training): about 9.6 seconds
number of crossings of target annulus compared to opposite annulus (aged-impaired (AI) rats [1]; [3]): more often
time in target annulus compared to opposite annulus (aged-impaired (AI) rats [1]; [3]): significantly more time in the target annulus

CCOC(=O)c1ncn2c1Cn1c(C)nnc1-c1cc(OC)ccc1-2 [ethyl 3-methoxy-7-methyl-9H-benzo[f]imidazo[1,5-a][1,2,4]triazolo[4,3-d][1,4]diazepine-10-carboxylate]
memory performance relative to vehicle control (aged-impaired (AI) rats [2]; 3 mg/kg): significantly improved memory performance
memory performance relative to vehicle control (aged-impaired (AI) rats [2]; 10 mg/kg): significantly improved memory performance
Ro 15-4513 binding in hippocampus (GABAA α5 receptor; 0.01-10 mg/kg): blocked; also recorded: reduced
cerebellum levels (binding) of Ro 15-4513 (GABAA α5 receptor; 0.01-10 mg/kg): did not affect; also recorded: without affecting
GABAA α5 receptor occupancy (GABAA α5 receptor; 10 mg/kg): > 90%
